Laboratory results as given in publication PMC6380468, “Investigations on small molecule inhibitors targeting the histone H3K4 tri-methyllysine binding PHD-finger of JmjC histone demethylases” (Bioorganic & Medicinal Chemistry, 2018).

Key:
KDM7B (PHD-JmjC) = target: T1, KDM7B (PHD-JmjC) (Homo sapiens, UniProt Q9UPP1); test: MALDI-TOF MS H3K9me2 demethylation assay, KDM7B(PHD-JmjC); format: biochemical; details: at 100 µM; MALDI-TOF MS; substrate H3(1–5)K4me3K9me2; read-out: KDM7B (PHD-JmjC) (Catalytic), inhibition of H3K9me2 demethylation
T1 construct: A dual-domain construct of KDM7A/B(PHD-JmjC), consisting of a JmjC domain in addition to the PHD-finger; His; made in house
Procedure: H3(1–15)K9me2 and H3(1–5)K4me3K9me2 were used as substrates for KDM7A(PHD-JmjC) and KDM7B(PHD-JmjC), respectively. […] For KDM7B(PHD-JmjC), inhibition was most pronounced for 1a (95%) and 2a (89%) whilst others inhibited more weakly (Table 4).
For KDM7(PHD-JmjC) assays, 2.5 µM enzyme was used, with 5 µM H3(1-15)K9me2 peptide substrate for KDM7A or H3(1-15)K4me3K9me2 for KDM7B. Final concentrations were: 1mM ascorbate, 50 µM (NH4)2Fe(II)(SO4)2 and 200 µM 2OG. The mixture was quenched using formic acid after 10 minutes (KDM7A) or 5 minutes (KDM7B).

KDM5A_c2 (ΔARID/PHD1) = target: T2, KDM5A_c2 (ΔARID/PHD1) (Homo sapiens, UniProt P29375); test: MALDI-TOF MS H3K4me3 demethylation assay, KDM5A_c2; format: biochemical; details: average ± StdDev of n = 2, read-out: IC50, inhibition of H3K4me3 demethylation activity, KDM5A_c2
T2 sequence (P29375 with tags, fused parts or gaps): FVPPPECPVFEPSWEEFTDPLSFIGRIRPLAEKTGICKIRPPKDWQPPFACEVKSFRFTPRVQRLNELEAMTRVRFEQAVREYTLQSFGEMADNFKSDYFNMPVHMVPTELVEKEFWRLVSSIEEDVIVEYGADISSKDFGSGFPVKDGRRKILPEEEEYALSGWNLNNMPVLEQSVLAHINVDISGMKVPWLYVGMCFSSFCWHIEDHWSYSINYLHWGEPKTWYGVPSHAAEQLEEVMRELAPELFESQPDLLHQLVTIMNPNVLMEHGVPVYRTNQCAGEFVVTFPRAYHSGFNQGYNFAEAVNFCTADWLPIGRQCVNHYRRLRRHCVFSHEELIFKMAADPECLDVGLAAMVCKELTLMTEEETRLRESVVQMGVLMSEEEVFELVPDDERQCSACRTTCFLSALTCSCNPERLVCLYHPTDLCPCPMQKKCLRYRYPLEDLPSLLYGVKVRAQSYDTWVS
Procedure: Two catalytically active constructs of KDM5A were employed, KDM5A_c1 (M1-L801) and KDM5A_c2 (ΔARID/PHD1, P13-S744 with L88-G353 (ARID/PHD1) replaced with a GGGG linker) and both KDM5A_c1 and KDM5A_c2 constructs lack the PHD2 and PHD3. […] A MALDI-TOF MS assay was used to measure the activity of H3K4me3 demethylation in the presence of inhibitors (Table 2, Fig. 3C and D).
The KDM5A mixture (5 µL, KDM5A-c1: 1.0 µM or KDM5A-c2: 0.5 µM) was pre-incubated with 100 nL inhibitors (in DMSO) for 10 min. […] The mixture was quenched using formic acid (5 µL, 1 v/v% in MQ) after 4 minutes (KDM5A-c1) or 3 minutes (KDM5A-c2). The stopped reaction (1 µL) was mixed with […] (CHCA) MALDI matrix (saturated solution in TFA (0.1%) in MilliQ water and trifluoroacetic acid (0.1%) acetonitrile (1:1)) at 1:1 ratio (2 µL), air dried and analysed using Bruker microflex MALDI-TOF controlled with FlexControl. The data were further processed using FlexAnalysis and excel.

KDM7C(PHD) = target: T3, KDM7C(PHD) (Homo sapiens, UniProt O75151); test: AlphaScreen displacement of H3K4me3-Bn from His-KDM7C(PHD); format: binding; details: AlphaScreen; 25 nM KDM7C(PHD) and 6.25 nM peptide; n ≥ 3; read-out: IC50 for displacement of H3K4me3-Bn from His-KDM7C(PHD)
T3 construct: made in house
T3 sequence (O75151 5-56 limits assumed): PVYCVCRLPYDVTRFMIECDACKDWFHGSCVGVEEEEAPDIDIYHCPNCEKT
Procedure: (§1) For peptide displacement assays, 5 µL of the inhibitor dilution series (at a concentration of 4% DMSO in AlphaScreen assay buffer) was pre-incubated with 5 µL of the protein at RT for 15 minutes. Peptide solution (5 µL) was added and incubated for 30 minutes at RT, followed by the addition of 5 µL of a mixture of AlphaScreen Streptavidin donor beads and Nickel Chelate acceptor beads in AlphaScreen assay buffer (20 µg/mL final). The contents were incubated for 60-120 minutes at RT in the dark, followed by measurement of luminescence on a BMG Labtech Pherastar plate reader (Software Ver. 5.30 R3, Firmware Ver. 1.21). The data was plotted in Prism Ver 7.01 (GraphPad Software, Inc.) and fitted to a Log(inhibitor) v/s response – variable slope model in order to obtain IC50 values.

KDM7A (PHD-JmjC) = KDM7A (PHD-JmjC) (Homo sapiens, UniProt Q6ZMT4); test: AlphaScreen displacement of H3K4me3-Bn from His-KDM7A(PHD-JmjC); format: binding; details: AlphaScreen displacement of H3K4me3-Bn; n = 3; NI = No inhibition seen at 100 μM; read-out: IC50 KDM7A (PHD-JmjC) (Displacement)
Procedure: A dual-domain construct of KDM7A/B(PHD-JmjC), consisting of a JmjC domain in addition to the PHD-finger (Fig. 1B), was used to test for allosteric inhibition through binding at the PHD-finger.
as §1

KDM7A(PHD) = target: T4, KDM7A(PHD) (Homo sapiens, UniProt Q6ZMT4); test: AlphaScreen displacement of H3K4me3-Bn from His-KDM7A(PHD); format: binding; details: AlphaScreen; 6.25 nM KDM7A(PHD) and 25 nM peptide; n ≥ 3; read-out: IC50 for displacement of H3K4me3-Bn from His-KDM7A(PHD)
T4 construct: made in house
T4 sequence (Q6ZMT4 37-88 limits assumed): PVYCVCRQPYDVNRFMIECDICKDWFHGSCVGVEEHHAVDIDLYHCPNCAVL
Procedure: as §1

Sequence of KDM7A (PHD-JmjC) (Q6ZMT4 37-386 limits assumed): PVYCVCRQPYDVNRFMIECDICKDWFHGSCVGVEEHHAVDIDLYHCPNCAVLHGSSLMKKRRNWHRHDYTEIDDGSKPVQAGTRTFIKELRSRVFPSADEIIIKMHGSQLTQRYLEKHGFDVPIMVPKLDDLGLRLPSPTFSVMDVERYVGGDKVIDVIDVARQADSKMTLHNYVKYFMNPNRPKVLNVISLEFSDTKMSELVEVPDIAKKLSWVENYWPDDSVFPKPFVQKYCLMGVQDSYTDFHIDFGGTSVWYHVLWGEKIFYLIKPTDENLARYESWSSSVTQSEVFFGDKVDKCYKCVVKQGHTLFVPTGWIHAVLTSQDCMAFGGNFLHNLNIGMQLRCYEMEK
T1 sequence (Q9UPP1 37-483 limits assumed): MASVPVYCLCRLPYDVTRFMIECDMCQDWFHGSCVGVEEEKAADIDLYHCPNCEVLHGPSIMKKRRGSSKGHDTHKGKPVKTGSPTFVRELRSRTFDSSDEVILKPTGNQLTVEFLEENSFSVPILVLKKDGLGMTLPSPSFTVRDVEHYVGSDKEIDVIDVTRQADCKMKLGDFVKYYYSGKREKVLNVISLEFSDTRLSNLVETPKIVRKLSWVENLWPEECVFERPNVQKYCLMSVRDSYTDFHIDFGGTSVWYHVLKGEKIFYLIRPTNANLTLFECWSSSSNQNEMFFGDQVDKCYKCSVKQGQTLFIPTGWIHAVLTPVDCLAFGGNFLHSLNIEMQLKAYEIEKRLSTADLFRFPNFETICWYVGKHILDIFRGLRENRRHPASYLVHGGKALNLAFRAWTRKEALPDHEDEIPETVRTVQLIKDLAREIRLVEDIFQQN

Row | Structure (SMILES) | inhibition at 100 µM (KDM7B (PHD-JmjC)) [%] | IC50 (KDM5A_c2 (ΔARID/PHD1)) [µM] | IC50 (KDM7C(PHD)) [µM] | IC50 (KDM7A (PHD-JmjC)) [µM] | IC50 (KDM7A(PHD)) [µM]
1 | CCCCc1oc2ccccc2c1C(=O)c1ccc(OCCCN(C)C)cc1 [Compound 1a, (2-Butylbenzofuran-3-yl)(4-(3-(dimethylamino)propoxy)phenyl)methanone] | 95 | > 1000 | 158 ± 30 | 295 ± 48 | 333 ± 39
2 | CCCCc1oc2ccccc2c1C(=O)c1ccc(OCCC[N+](C)(C)C)cc1.[I-] [Compound 2a, 3-(4-(2-Butylbenzofuran-3-carbonyl)phenoxy)-N,N,N-trimethylpropan-1-aminium iodide] | 89 | 37 ± 14 | 579 ± 87 | 149 ± 32 | 86 ± 9
